Molecules are shown by their SMILES.

The target in the experiment is Escherichia coli DNA gyrase A/B tetramer (Escherichia coli (strain K12), UniProt P0AES4+P0AES6). Description: DNA gyrase supercoiling activity fluorescence polarisation assay. The class given is biochemical. The conditions noted are these: 5 nM enzyme, relaxed plasmid, 0.3 mM ATP, ambient temperature; read-out: E. coli DNA gyrase supercoiling IC50. In outline: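 Supercoiling reactions quenched with 40 nM 5′-BODIPY-FL triplex-forming oligonucleotide probe in pH 3.5 NaCl/sodium acetate buffer; after 60 min, fluorescence anisotropy read (ex 485/em 535 nm). IC50 by nonlinear regression, normalised to 0.8% DMSO (100% activity) and 5 μM ciprofloxacin (0% activity).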
For orientation: IC50 means the midpoint of a concentration-inhibition curve. Regarding `C[C@H]1CN2c3c(cc4c(C(=O)NCC(F)F)noc4c3F)CC3(C(=O)NC(=O)NC3=O)[C@@H]2[C@@H](C)O1` [Example 94(a), (2S,4R,4aR)—N-(2,2-difluoroethyl)-11-fluoro-2,4-dimethyl-2′,4′,6′-trioxo-2,2′,3′,4,4a,4′,6,6′-octahydro-1H,1′H-spiro[isoxazolo[4,5-g][1,4]oxazino[4,3-a]quinoline-5,5′-pyrimidine]-8-carboxamide], the IC50 stood at 51000 nM.

Consider `C[C@@H]1CN2c3c(cc4c(C(=O)NCC(F)F)noc4c3F)CC3(C(=O)NC(=O)NC3=O)[C@H]2[C@H](C)O1` [Example 94(b), (2R,4S,4aS)—N-(2,2-difluoroethyl)-11-fluoro-2,4-dimethyl-2′,4′,6′-trioxo-2,2′,3′,4,4a,4′,6,6′-octahydro-1H,1′H-spiro[isoxazolo[4,5-g][1,4]oxazino[4,3-a]quinoline-5,5′-pyrimidine]-8-carboxamide], for which the IC50 was determined as 800 nM.

For the compound `C[C@@H]1CN2c3c(cc4c(C(=O)N5CC(F)(F)C5)noc4c3F)CC3(C(=O)NC(=O)NC3=O)[C@H]2[C@H](C)O1` [Example 95(a), (2R,4S,4aS)-8-(3,3-difluoroazetidine-1-carbonyl)-11-fluoro-2,4-dimethyl-2,4,4a,6-tetrahydro-1H,1′H-spiro[isoxazolo[4,5-g][1,4]oxazino[4,3-a]quinoline-5,5′-pyrimidine]-2′,4′,6′(3′H)-trione], the IC50 was 1000 nM.

Regarding `C[C@@H]1CN2c3c(cc4c(-c5nccs5)noc4c3F)CC3(C(=O)NC(=O)NC3=O)[C@H]2[C@H](C)O1` [Example 96, (2R,4S,4aS)-11-fluoro-2,4-dimethyl-8-(thiazol-2-yl)-2,4,4a,6-tetrahydro-1H,1′H-spiro[isoxazolo[4,5-g][1,4]oxazino[4,3-a]quinoline-5,5′-pyrimidine]-2′,4′,6′(3′H)-trione], the IC50 was found to be 700 nM.

On to `C[C@H]1CN2c3c(nc4c(-c5nccs5)noc4c3Cl)CC3(C(=O)NC(=O)NC3=O)[C@@H]2[C@@H](C)O1` [Example 111(a), (2S,4R,4aR)-11-chloro-2,4-dimethyl-8-(thiazol-2-yl)-2,4,4a,6-tetrahydro-1H,1′H-spiro[isoxazolo[4,5-g][1,4]oxazino[4,3-a][1,5]naphthyridine-5,5′-pyrimidine]-2′,4′,6′(3′H)-trione], for which the IC50 came to 83000 nM.

`C[C@@H]1CN2c3c(nc4c(-c5nccs5)noc4c3Cl)CC3(C(=O)NC(=O)NC3=O)[C@H]2[C@H](C)O1` [Example 111(b), (2R,4S,4aS)-11-chloro-2,4-dimethyl-8-(thiazol-2-yl)-2,4,4a,6-tetrahydro-1H,1′H-spiro[isoxazolo[4,5-g][1,4]oxazino[4,3-a][1,5]naphthyridine-5,5′-pyrimidine]-2′,4′,6′(3′H)-trione]: the IC50 stood at 1100 nM.

Turning to `CNC(=O)c1noc2c(F)c3c(cc12)CC1(C(=O)NC(=O)NC1=O)[C@H]1[C@H](C)O[C@H](C)CN31` [Example 140(a), (2R,4S,4aS)-11-fluoro-N,2,4-trimethyl-2′,4′,6′-trioxo-2,2′,3′,4,4a,4′,6,6′-octahydro-1H,1′H-spiro[isoxazolo[4,5-g][1,4]oxazino[4,3-a]quinoline-5,5′-pyrimidine]-8-carboxamide], the IC50 is 900 nM.

`CC(C)NC(=O)c1noc2c(F)c3c(cc12)CC1(C(=O)NC(=O)NC1=O)[C@H]1[C@H](C)O[C@H](C)CN31` [Example 147(a), (2R,4S,4aS)-11-fluoro-N-isopropyl-2,4-dimethyl-2′,4′,6′-trioxo-2,2′,3′,4,4a,4′,6,6′-octahydro-1H,1′H-spiro[isoxazolo[4,5-g][1,4]oxazino[4,3-a]quinoline-5,5′-pyrimidine]-8-carboxamide]: the IC50 came out at 900 nM.

In the case of `C[C@H]1CN2c3c(cc4c(-c5ncccn5)noc4c3F)CC3(C(=O)NC(=O)NC3=O)[C@@H]2[C@@H](C)O1` [Example 148(a), (2S,4R,4aR)-11-fluoro-2,4-dimethyl-8-(pyrimidin-2-yl)-2,4,4a,6-tetrahydro-1H,1′H-spiro[isoxazolo[4,5-g][1,4]oxazino[4,3-a]quinoline-5,5′-pyrimidine]-2′,4′,6′(3′H)-trione], the IC50 came out at 83000 nM.

With `C[C@@H]1CN2c3c(cc4c(-c5ncccn5)noc4c3F)CC3(C(=O)NC(=O)NC3=O)[C@H]2[C@H](C)O1` [Example 148(b), (2R,4S,4aS)-11-fluoro-2,4-dimethyl-8-(pyrimidin-2-yl)-2,4,4a,6-tetrahydro-1H,1′H-spiro[isoxazolo[4,5-g][1,4]oxazino[4,3-a]quinoline-5,5′-pyrimidine]-2′,4′,6′(3′H)-trione], the IC50 came to 400 nM.

Take `C[C@@H]1CN2c3c(cc4c(-c5cnccn5)noc4c3F)CC3(C(=O)NC(=O)NC3=O)[C@H]2[C@H](C)O1` [Example 165(b), (2R,4S,4aS)-11-fluoro-2,4-dimethyl-8-(pyrazin-2-yl)-2,4,4a,6-tetrahydro-1H,1′H-spiro[isoxazolo[4,5-g][1,4]oxazino[4,3-a]quinoline-5,5′-pyrimidine]-2′,4′,6′(3′H)-trione]: the IC50 amounted to 200 nM.

Take `C[C@@H]1CN2c3c(cc4c(-c5cnc(N6CCOCC6)cn5)noc4c3F)CC3(C(=O)NC(=O)NC3=O)[C@@H]2[C@@H](C)O1` [Example 166(a), (2R,4R,4aR)-11-fluoro-2,4-dimethyl-8-(5-morpholinopyrazin-2-yl)-2,4,4a,6-tetrahydro-1H,1′H-spiro[isoxazolo[4,5-g][1,4]oxazino[4,3-a]quinoline-5,5′-pyrimidine]-2′,4′,6′(3′H)-trione]: the IC50 was determined as 83000 nM.

On to `C[C@@H]1CN2c3c(cc4c(-c5cnc(N6CCOCC6)cn5)noc4c3F)CC3(C(=O)NC(=O)NC3=O)[C@H]2[C@H](C)O1` [Example 166(b), (2R,4S,4aS)-11-fluoro-2,4-dimethyl-8-(5-morpholinopyrazin-2-yl)-2,4,4a,6-tetrahydro-1H,1′H-spiro[isoxazolo[4,5-g][1,4]oxazino[4,3-a]quinoline-5,5′-pyrimidine]-2′,4′,6′(3′H)-trione], for which the IC50 is 6900 nM.

`COc1cncc(-c2noc3c(F)c4c(cc23)CC2(C(=O)NC(=O)NC2=O)[C@H]2[C@H](C)O[C@H](C)CN42)n1` [Example 167, (2R,4S,4aS)-11-fluoro-8-(6-methoxypyrazin-2-yl)-2,4-dimethyl-2,4,4a,6-tetrahydro-1H,1′H-spiro[isoxazolo[4,5-g][1,4]oxazino[4,3-a]quinoline-5,5′-pyrimidine]-2′,4′,6′(3′H)-trione]: the IC50 is 1100 nM.

As to `CSc1nccc(-c2noc3c(F)c4c(cc23)CC2(C(=O)NC(=O)NC2=O)[C@H]2[C@H](C)O[C@H](C)CN42)n1` [Example 168, (2R,4S,4aS)-11-fluoro-2,4-dimethyl-8-(2-(methylthio)pyrimidin-4-yl)-2,4,4a,6-tetrahydro-1H,1′H-spiro[isoxazolo[4,5-g][1,4]oxazino[4,3-a]quinoline-5,5′-pyrimidine]-2′,4′,6′(3′H)-trione], the IC50 was 600 nM.

On to `COCCNc1nccc(-c2noc3c(F)c4c(cc23)CC2(C(=O)NC(=O)NC2=O)[C@H]2[C@H](C)O[C@H](C)CN42)n1` [Example 170, (2R,4S,4aS)-11-fluoro-8-(2-(2-methoxyethylamino)pyrimidin-4-yl)-2,4-dimethyl-2,4,4a,6-tetrahydro-1H,1′H-spiro[isoxazolo[4,5-g][1,4]oxazino[4,3-a]quinoline-5,5′-pyrimidine]-2′,4′,6′(3′H)-trione], for which the concentration for half-maximal inhibition (IC50) came to 700 nM.
